Active and inactive are the calls of the source. No cut-off for these calls is given here.
Assays:
[1] = Drug uptake in Sprague-Dawley rat brain at 30 mg/kg, po measured at Tmax; format: ADME, organism-based; conditions: in vivo
[2] = molecular target: Mitogen-activated protein kinase 10 (Rattus norvegicus) (UniProt P49187); assay: Inhibition of JNK3 mediated anisomycin-induced APP phosphorylation in rat cortical neurons at 10 to 20 uM incubated for 24 hrs by Western blot analysis; format: cell-based; conditions: Cortical neuron, dose 10-20 µM
[3] = molecular target: T1, Dual specificity mitogen-activated protein kinase kinase 6 (Homo sapiens, UniProt P52564); assay: Inhibition of MKK6 (unknown origin) assessed as incorporation of 33P-ATP
T1 sequence (P52564 whole entry): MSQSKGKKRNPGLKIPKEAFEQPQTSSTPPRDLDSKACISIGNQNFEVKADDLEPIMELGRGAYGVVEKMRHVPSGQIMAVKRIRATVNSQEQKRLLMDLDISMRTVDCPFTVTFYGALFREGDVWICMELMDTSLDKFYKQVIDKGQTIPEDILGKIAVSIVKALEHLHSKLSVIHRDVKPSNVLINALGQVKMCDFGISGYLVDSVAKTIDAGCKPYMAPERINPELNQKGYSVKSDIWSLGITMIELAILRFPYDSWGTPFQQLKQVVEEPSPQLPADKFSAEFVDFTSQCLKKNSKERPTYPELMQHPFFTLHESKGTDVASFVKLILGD

[4] = Apparent permeability across basolateral to apical side in human Caco-2 cells at 10 uM incubated for 1 hr by LC-MS/MS analysis; format: ADME, cell-based
[5] = Tmax in Sprague-Dawley rat at 3 mg/kg, po measured upto 24 hrs by UPLC analysis; format: ADME, organism-based; conditions: in vivo
[6] = molecular target: Mitogen-activated protein kinase 10 (Rattus norvegicus) (UniProt P49187); assay: Inhibition of JNK3 in anisomycin-induced c-Jun phosphorylation in primary rat cortex neuron assessed as decrease in c-Jun phosphorylation at 20 uM pretreated for 90 mins followed by treated with anisomycin further incubated for 40 mins by Western blot analysis; format: cell-based; conditions: Primary cortical neuron
[7] = molecular target: Mitogen-activated protein kinase 10 (Homo sapiens, UniProt P53779); assay: Inhibition of human JNK3 incubated for 40 mins in presence of ATP and [gamma33P-ATP] by scintillation counting method; conditions: read-out: IC50
Mus musculus [8] = assay: Anti-alzheimer activity against homozygous 3 x Tg mouse model assessed as spontaneous alteration at 60 mg/kg, po administered daily for 2 month and measured after 57 days of treatment by Y-maze test (reference value: 46.81 +/- 2.76%); format: functional; conditions: time 2 months, 1460 h
Mus musculus [9] = assay: Anti-alzheimer activity against APP/PS1 dE9 double transgenic mouse model assessed as spontaneous alteration at 30 mg/kg, po administered 3 times/week for 1 month and measured after 27 days of treatment by Y-maze test (reference value: 46.70 +/- 3.32%); format: functional; conditions: time 1 months, 730 h
[10] = Toxicity in APP/PS1 mouse assessed as weight change at 30 mg/kg, po treated 3 times/week for 1 month; format: organism-based; conditions: in vivo, 730 h, time 1 months
[11] = molecular target: T2, MAPK/MAK/MRK overlapping kinase (Homo sapiens, UniProt Q9UQ07); assay: Inhibition of MOK (unknown origin) assessed as incorporation of 33P-ATP
T2 sequence (Q9UQ07 whole entry): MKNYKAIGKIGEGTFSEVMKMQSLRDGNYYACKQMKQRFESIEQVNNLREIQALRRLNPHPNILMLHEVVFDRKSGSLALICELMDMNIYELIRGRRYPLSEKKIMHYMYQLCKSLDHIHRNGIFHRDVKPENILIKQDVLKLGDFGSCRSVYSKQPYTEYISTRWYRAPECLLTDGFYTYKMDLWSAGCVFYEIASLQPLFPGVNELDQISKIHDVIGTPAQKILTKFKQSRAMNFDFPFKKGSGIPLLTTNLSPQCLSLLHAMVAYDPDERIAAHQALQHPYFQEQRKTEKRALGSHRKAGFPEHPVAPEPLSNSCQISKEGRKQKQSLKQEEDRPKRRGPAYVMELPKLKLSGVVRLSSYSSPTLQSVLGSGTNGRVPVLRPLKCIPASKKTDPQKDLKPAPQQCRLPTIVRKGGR

[12] = molecular target: Mitogen-activated protein kinase 11 (Homo sapiens, UniProt Q15759); assay: Inhibition of human SAPK2b assessed as incorporation of 33P-ATP
[13] = molecular target: T3, Mitogen-activated protein kinase 9 (Homo sapiens, UniProt P45984); assay: Inhibition of human JNK2 incubated for 40 mins in presence of ATP and [gamma33P-ATP] by scintillation counting method
Mus musculus [14] = assay: Anti-alzheimer activity against APP/PS1 dE9 double transgenic mouse model assessed as spontaneous alteration at 10 mg/kg, po administered 3 times/week for 1 month and measured after 27 days of treatment by Y-maze test (reference value: 46.70 +/- 3.32%); format: functional; conditions: time 1 months, 730 h
[15] = molecular target: T3, Mitogen-activated protein kinase 9; assay: Inhibition of human JNK2alpha1 assessed as incorporation of 33P-ATP
[16] = Toxicity in APP/PS1 mouse assessed as dead animal at 30 mg/kg, po treated 3 times/week for 1 month; format: organism-based; conditions: in vivo, 730 h, time 1 months
[17] = Apparent permeability across apical to basolateral side in human Caco-2 cells at 10 uM incubated for 1 hr by LC-MS/MS analysis; format: ADME, cell-based
Mus musculus [18] = assay: Anti-alzheimer activity against homozygous 3 x Tg mouse model assessed as time spent in platform quadrant at 30 mg/kg, po administered daily for 2 months and measured after 27 days of treatment by Morris water maze test (reference value: 15.68 +/- 1.65 sec); format: functional; conditions: 1460 h
[19] = AUC in Sprague-Dawley rat at 1 mg/kg, iv measured upto 24 hrs by UPLC analysis; format: ADME, organism-based; parameters: dose 1 mg/kg, time < 24 hrs, route iv; conditions: in vivo
[20] = molecular target: Glycogen synthase kinase-3 alpha (Homo sapiens, UniProt P49840); assay: Inhibition of human GSK3alpha assessed as incorporation of 33P-ATP
[21] = Half life in Sprague-Dawley rat at 3 mg/kg, po measured upto 24 hrs by UPLC analysis; format: ADME, organism-based; conditions: in vivo

Mitogen-activated protein kinase 10 (Rattus norvegicus), sequence (P49187 whole entry): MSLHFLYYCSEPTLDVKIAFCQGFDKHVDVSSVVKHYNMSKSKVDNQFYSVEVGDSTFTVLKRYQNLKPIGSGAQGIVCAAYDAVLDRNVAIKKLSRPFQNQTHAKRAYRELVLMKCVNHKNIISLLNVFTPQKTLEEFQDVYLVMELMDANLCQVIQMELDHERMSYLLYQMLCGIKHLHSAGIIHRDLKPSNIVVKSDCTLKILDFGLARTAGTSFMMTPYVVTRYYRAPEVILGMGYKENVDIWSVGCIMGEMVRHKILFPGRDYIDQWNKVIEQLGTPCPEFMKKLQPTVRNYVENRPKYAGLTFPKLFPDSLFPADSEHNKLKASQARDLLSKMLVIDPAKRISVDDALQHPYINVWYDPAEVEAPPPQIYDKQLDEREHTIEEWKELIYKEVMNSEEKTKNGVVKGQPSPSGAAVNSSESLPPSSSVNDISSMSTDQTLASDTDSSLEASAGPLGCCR
T3 sequence (P45984 whole entry): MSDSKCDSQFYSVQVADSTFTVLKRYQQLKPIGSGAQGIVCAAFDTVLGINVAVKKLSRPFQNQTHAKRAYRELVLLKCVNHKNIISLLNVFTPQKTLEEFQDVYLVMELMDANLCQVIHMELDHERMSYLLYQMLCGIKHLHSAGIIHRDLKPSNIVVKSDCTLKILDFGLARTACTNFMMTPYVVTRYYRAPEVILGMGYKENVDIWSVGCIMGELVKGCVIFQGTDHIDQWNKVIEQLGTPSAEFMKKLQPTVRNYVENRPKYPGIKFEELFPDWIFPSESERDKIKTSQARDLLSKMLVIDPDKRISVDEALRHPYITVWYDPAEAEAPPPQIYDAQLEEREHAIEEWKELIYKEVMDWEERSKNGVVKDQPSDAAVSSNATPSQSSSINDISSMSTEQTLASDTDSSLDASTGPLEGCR
Mitogen-activated protein kinase 11, sequence (Q15759 whole entry): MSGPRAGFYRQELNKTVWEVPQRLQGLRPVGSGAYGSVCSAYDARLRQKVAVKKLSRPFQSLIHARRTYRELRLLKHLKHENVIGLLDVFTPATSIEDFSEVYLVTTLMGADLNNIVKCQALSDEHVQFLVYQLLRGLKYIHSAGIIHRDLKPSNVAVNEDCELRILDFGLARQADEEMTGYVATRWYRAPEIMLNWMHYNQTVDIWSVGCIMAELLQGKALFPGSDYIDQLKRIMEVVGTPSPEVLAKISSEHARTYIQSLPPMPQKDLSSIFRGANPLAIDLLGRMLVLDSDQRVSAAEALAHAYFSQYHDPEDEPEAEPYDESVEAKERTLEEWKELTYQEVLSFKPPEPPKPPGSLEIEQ
Glycogen synthase kinase-3 alpha, sequence (P49840 whole entry): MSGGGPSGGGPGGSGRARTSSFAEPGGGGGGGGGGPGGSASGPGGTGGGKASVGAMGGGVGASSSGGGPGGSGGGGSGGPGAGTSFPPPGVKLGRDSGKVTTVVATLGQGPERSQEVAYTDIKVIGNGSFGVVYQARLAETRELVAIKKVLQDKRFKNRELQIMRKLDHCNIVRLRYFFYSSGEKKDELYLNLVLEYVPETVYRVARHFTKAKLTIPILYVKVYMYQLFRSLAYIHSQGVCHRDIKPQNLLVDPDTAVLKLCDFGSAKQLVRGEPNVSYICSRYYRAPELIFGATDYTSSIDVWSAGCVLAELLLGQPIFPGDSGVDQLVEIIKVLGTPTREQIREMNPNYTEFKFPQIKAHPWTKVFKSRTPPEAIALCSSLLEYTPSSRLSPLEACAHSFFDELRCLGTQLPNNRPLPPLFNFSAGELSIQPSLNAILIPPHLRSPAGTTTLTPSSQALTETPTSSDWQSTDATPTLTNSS
Mitogen-activated protein kinase 10, sequence (P53779 whole entry): as the sequence (P49187 whole entry) above, with H27Q, S32Y, V33I, V34A counted along it

N#CCc1cnc(-c2ccc3ccccc3c2)n1-c1ccnc(N[C@H]2CCCN(C(=O)C3CC3)C2)n1
Drug uptake [1]: 26 ng/g
inhibition [2]: Active
IC50 [3]: 15100 nM
Papp B→A at 1 h, 10 µM [4]: 26.4 ×10⁻⁶ cm/s
Tmax [5]: 37.8 min
Activity [6]: Active
IC50 [7]: 1 nM
Activity (Mus musculus [8]): 56.55%
Activity (Mus musculus [9]): 56.12%
Activity [10]: Non-Toxic
IC50 [11]: 1180 nM
IC50 [12]: 280 nM
IC50 [13]: 144 nM
Activity (Mus musculus [14]): 52.31%
IC50 [15]: 340 nM
Activity [16]: Non-Toxic
Papp A→B at 1 h, 10 µM [17]: 13.7 ×10⁻⁶ cm/s
Time (Mus musculus [18]): 13.24 s
AUC at 24 h [19]: 718 ng·h/mL
IC50 [20]: 5780 nM
half-life [21]: 20.4 min

Reference: ChEMBL document CHEMBL5385844, “Discovery of novel imidazole chemotypes as isoform-selective JNK3 inhibitors for the treatment of Alzheimer's disease” (Eur J Med Chem, 2023)
